Measurements: US20250127777A1, “DUAL INHIBITION OF MDM2 AND EIF2-ALPHA INDUCES CELL DEATH IN MULTIPLE CANCER CELL TYPES” (The Regents of the University of Colorado, A Body Corporate, priority 2022, published 2025)

Legend:
[1] = test system: cell viability; experiment: Cell viability after single-agent treatment; format: cell-based
[2] = test system: HCT116 xenograft tumors; experiment: HCT116 xenograft tumor model; format: in vivo; conditions: nude mice, 200 mg/kg nelfinavir and/or 200 mg/kg milademetan
Procedure: Athymic nude mice (NU/NU) weighting 20 to 30 grams and being 8-12 weeks of age (Charles River Labs) were housed in cages under standard conditions (22° C., 50% relative humidity, 12-h light/dark cycles) and provided with food and water ad libitum. Next, […] exponentially growing HCT116 cells resuspended in 100 μl Matrigel/PBS (5 mg/ml final) were injected subcutaneously into both flanks. Tumors grew for 10-14 days before treatment initiation. Experimental animals were given 200 mg/kg nelfinavir and/or 200 mg/kg Milademetan (Rain Therapeutics) by oral gavage once daily, 5 days a week. Tested compounds were prepared in a mixture of 2% Klucel (hydroxypropyl cellulose), 0.5% Tween 80, and 35% ethanol. Tumor volumes (v) were estimated daily, 5 days a week using caliper measurements and formula v=(I×w^2)/2, where I represents the greatest length of the tumor and w is tumor width in the perpendicular axis. Average volumes of the right and left flank tumors were used for plotting and calculations. Equal ratios of male and female mice were used in treatment groups (5 males and 5 females). All in vivo experiments were approved by the Institutional Animal Care and Use Committee at the CU-AMC (IACUC protocol 00432).
(§1) After indicated treatments, cells were washed with PBS, total RNA was extracted using Trizol substitute (38% Phenol, saturated, pH 4.3, 0.8 M guanidine thiocyanate, 0.4 M ammonium thiocyanate, 0.1 M sodium acetate, pH 5.0, 5% glycerol), and converted to cDNA with High-Capacity cDNA Reverse Transcription Kit (Thermo Fisher). Next, diluted cDNA was used in quantitative PCR reaction using SYBR Select Master Mix for CFX (Thermo Fisher). Detected mRNA levels were normalized to 18s rRNA values.
Tumors fixed in 4% formaldehyde were transferred to 70% ethanol and embedded in paraffin at the Pathology Shared Resource-Research Histology, University of Colorado Anschutz Medical Campus. Three tumors from each experimental group were sectioned, stained with DAPI and Ki67 primary antibody using Akoya Opal technology (Akoya Biosciences), and scanned at six representative regions with Vectra 3.0 (Akoya Biosciences) at the Human Immune Monitoring Shared Resource (University of Colorado Anschutz). Next, InForm image analysis software (Akoya Biosciences) was used for automated identification of nuclei based on the DAPI signal. Ki67 nuclear fluorescence was outputted for all nuclei.

[3] = test system: K1 cells; experiment: Annexin V-FITC/PI apoptosis assay by flow cytometry; format: cell-based; conditions: 10 μM nutlin-3a, 25 μM GSK2830371, or both, 72 hours
Procedure: (§2) TPC1, K1, HCT116, MCF7, SJSA, and HEK293FT cells were cultivated in RPMI (TPC1, SJSA), DMEM (K1, MCF7, HEK293FT), and McCoy's (HCT116) media (Gibco, Thermo Fisher Scientific) supplemented with 10% fetal bovine serum (Peak Serum) and 1% antibiotic-antimycotic mixture (Gibco). Cells were plated a day before the treatment and maintained in a humidified atmosphere with 5% of CO2 at 37° C. Both TPC1 and K1 lines were gifts from Dr. Rebecca Schweppe, University of Colorado Anschutz Medical Campus (CU-AMC). Cell line identity has been verified by short tandem repeats profiling at the Cell Technologies Shared Resource, CU-AMC. Colorectal cancer organoid cultures (CRC172) were obtained from the Enteroid Stem Cell Core facility at CU-AMC.
(§3) The fraction of apoptotic cells was determined by Annexin V-FITC/PI assay. Briefly, cells harvested by trypsinization were resuspended in Annexin-V binding buffer (10 mM HEPES pH 7.4, 140 mM NaCl, 2.5 mM CaCl2)). Approximately 2*10^5 cells were labeled with Annexin-V-FITC (Invitrogen) and PI (10 μg/ml, Millipore-Sigma) for 15 minutes in the dark before flow cytometric analysis (Accuri C6, Becton Dickinson). To analyze mitochondrial membrane potential (44m) cells were trypsinized and resuspended in cultivation media. An aliquot of approximately 5*10^5 cells per sample was mixed with tetramethylrhodamine, ethyl ester, perchlorate (TMRE, Thermo Fisher, 100 nM final concentration) solution, incubated for 10 minutes in the dark, and analyzed by flow cytometer.

[4] = test system: TPC1 cells; experiment: as above; format: cell-based; conditions: 10 μM nutlin-3a, 25 μM GSK2830371, or both, 72 hours
Procedure: as §2, §3

[5] = test system: p53; experiment: Western blot of p53 in thyroid carcinoma cells; format: cell-based; conditions: TPC1 and K1 cells; 10 μM nutlin-3a, 25 μM GSK2830371; 24 hours
Procedure: Following a brief sonication (2.5W, 5 sec) and heat denaturation (90° C., 5 min), total protein concentration in whole cell lysates was measured by a BCA Protein Assay Kit (Pierce, Thermo Fisher Scientific). 20 μg of protein per sample was resolved by SDS-PAGE and transferred onto a 0.45 μm PVDF membrane (0.2 μm for ATF3 detection). Membranes were incubated in blocking buffer (5% fat-free milk in wash buffer—20 mM Tris pH 7.6, 150 mM NaCl, 0.2% Tween 20) for an hour at RT and o/n at 4° C. with the primary antibody diluted in a fresh blocking buffer. Next day membranes were washed three times for 10 min in the wash buffer, incubated with HRP-conjugated secondary antibody for an hour at RT, and washed again three times in the wash buffer. SuperSignal West Pico Plus Chemiluminescence Substrate (Pierce) was used for detection and digital images were acquired using an ImageQuant LAS 4000 (GE Healthcare Life Sciences).

[6] = test system: K1 cells; experiment: RNA-seq transcriptome analysis (DESeq2); format: cell-based, Human
Procedure: (§4) TPC1 and K1 cells were plated at 2*104/cm2 and treated for 24 hours as indicated. Following the treatment period, cells were washed with ice-cold PBS and lysed in TRI Reagent (Millipore Sigma). Quality of the extracted RNA was assessed by Agilent Bioanalyzer 2100 using RNA 6000 Pico chips (Agilent). Single-end 150 bp sequencing of the poly-A (+)-enriched RNA was carried out on the Illumina HiSeq 4000 platform by the Genomics Core facility at the University of Colorado Anschutz.
(§5) Quality of the sequencing data was analyzed using FASTQC (version 0.11.2, available at the website www.bioinformatics.babraham.ac.uk/projects/fastqc and presence of common sequencing contaminants was assessed by FastQ Screen (v0.4.4) available at the website www.bioinformatics.babraham.ac.uk/projects/fastq_screen/. Bases with low quality (Q<10) were 3′ end trimmed and reads shorter than 30 nt were discarded using the Fastx toolkit (v0.0.13.2). Reads were aligned to a GRCh37/hg19 Human reference using TopHat2 (v2.0.13,-b2-sensitive-keep-fasta-order-no-coverage-search-max-multihits 10-library-type fr-firststrand) (Kim et al., 2013) with the UCSC hg19 GTF annotation file provided in the iGenomes UCSC hg19 bundle available at the website: support.illumina.com/sequencing/sequencing_software/igenome.html. Aligned reads with MAPQ<10 quality were removed using SAMtools (v0.1.19). Alignments were then sorted by coordinates, and duplicates were identified using Picard (v1.129). Quality assessment of final mapped reads was conducted using RSeQC (v2.6) (Wang et al., 2012). Gene-level counts were obtained using HTSeq (v0.6.1) (Anders et al., 2015) with the following options (-stranded=reverse -minaqual=10-type=exon-idattr=gene_id_mode=intersection-nonempty) using the iGenomes UCSC hg19 GTF annotation file. Differential gene expression was evaluated using DESeq2 (version 1.6.3) (Love et al., 2014) in R (version 3.1.0), using q<0.05 (FDR<5%) and fold-change>1.5 (Up) or <1/1.5 (Down) as cutoffs for differentially expressed genes. Genome browser snapshots were generated from bedGraph or tgv files using IGV genome viewer (v2.8.10) (Thorvaldsdottir et al., 2013).

[7] = test system: TPC1 cells; experiment: RNA-seq transcriptome analysis (DESeq2); format: cell-based, Human
Procedure: as §4, §5

[8] = test system: ATF3 and ATF4 mRNA; experiment: ATF3 and ATF4 mRNA induction (RNA-seq, Q-RT-PCR); format: cell-based, Human; conditions: TPC1, K1, and four other cell lines; 24 hours
Description: as §1
TPC1 and K1 cells were plated at 2*104/cm2 and treated for 24 hours as indicated. Following the treatment period, cells were washed with ice-cold PBS and lysed in TRI Reagent (Millipore Sigma). Quality of the extracted RNA was assessed by Agilent Bioanalyzer 2100 using RNA 6000 Pico chips (Agilent). Single-end 150 bp sequencing of the poly-A (+)-enriched RNA was carried out on the Illumina HiSeq 4000 platform by the Genomics Core facility at the University of Colorado Anschutz. […]

[9] = test system: ATF3 and ATF4 gene loci; experiment: GRO-seq transcriptional activity at ATF3 and ATF4 gene loci; format: cell-based; conditions: 60 minutes of nutlin treatment (10 μM); three different cell lines
[10] = test system: TPC1 and HCT116; experiment: Polysome profiling (polysome/monosome ratio); format: cell-based; conditions: 24 hours
Procedure: TPC1 and HCT116 were plated at 6*104/cm2 on 143 cm2 dishes, cultivated o/n, and treated accordingly. Ten minutes before the harvest cultivation media was supplemented with cycloheximide (CHX) at final concentration of 100 μg/ml. Next, cells were washed twice with ice-cold PBS with 100 μg/ml CHX and lysed in polysome preparation lysis buffer (20 mM HEPES pH 7.4, 15 mM MgCl2, 200 mM NaCl, 1% Triton X-100, 100 μg/ml CHX, 2 mM DTT, and 100U SuperaseIN). Lysates were cleared of debris by centrifugation at 20,000g, 4° C. for 10 minutes. Total nucleic acid content in lysates was measured by absorbance at 260 nm and used for sample concentration normalization. Next, 500 μl of the lysate was loaded on 10-60% sucrose gradients in SW41 tubes in lysis buffer lacking Triton X-100. These gradients were prepared using a BioComp system and chilled to 4° C. before use. Samples were ultracentrifuged at 36,000 rpm for 3 hours and 10 min, at 4° C., then samples were fractionated using a BioComp system, monitoring absorbance at 260 nm while collecting fractions of approximately 0.4 ml each.

[11] = test system: diverse cell types; experiment: Annexin V-FITC/PI apoptosis assay, elF2α plus MDM2 inhibition; format: cell-based
Procedure: as §2
as §3, with “To analyze mitochondrial membrane potential (44m) cells were trypsinized and resuspended in cultivation media.” left out

[12] = FDR<5%, adjusted fold change>1.5
[13] = nutlin 10 μM, GSK2830371 25 μM, or both, 24 hours

Q: How did the “effects on cell viability when administered alone” value (from here on “effects on cell viability”) [1] turn out when `COc1cc(C(=O)O)ccc1NC(=O)[C@@H]1N[C@@H](CC(C)(C)C)[C@](C#N)(c2ccc(Cl)cc2F)[C@H]1c1cccc(Cl)c1F` [idasanutlin] was run?
A: limited effects on cell viability

Q: `CC1(C)CCC2(CC1)N[C@@H](C(=O)N[C@@H]1CC[C@@H](C(N)=O)OC1)[C@H](c1ccnc(Cl)c1F)[C@]21C(=O)Nc2cc(Cl)ccc21` [milademetan] was tested. Which “animal survival (Kaplan Meier; humane endpoint tumor size>1000 mm^3)” value ([2]; oral gavage) did it give?
A: had to be sacrificed at the humane endpoint

Q: What about the tumor growth ([2]; oral gavage once daily, 5 days a week) of the same compound?
A: Tumors continued to grow

Q: And the “effects on cell viability” value [1]?
A: limited effects on cell viability

Q: For `COc1ccc(C2=N[C@@H](c3ccc(Cl)cc3)[C@@H](c3ccc(Cl)cc3)N2C(=O)N2CCNC(=O)C2)c(OC(C)C)c1` [nutlin-3a], which “apoptosis (Annexin V-FITC/PI)” value [3] is on record?
A: does not cause p53-dependent apoptosis

Q: And the “apoptosis (Annexin V-FITC/PI)” value [4]?
A: does not cause p53-dependent apoptosis

Q: And the p53 stabilization [5]?
A: stabilizes p53

Q: And the “genes induced by both nutlin and nutlin+GSK2830371” value [6, 12]?
A: 367 genes

Q: What about the “differentially expressed mRNAs versus vehicle” value [6, 13] of the same compound?
A: hundreds of mRNAs significantly upregulated or downregulated

Q: And the “genes induced by both nutlin and nutlin+GSK2830371” value [7, 12]?
A: 1924 genes

Q: And the “differentially expressed mRNAs versus vehicle” value [7, 13]?
A: hundreds of mRNAs significantly upregulated or downregulated

Q: What about the “ATF3 induction at the mRNA level” value [8] of the same compound?
A: clear induction of ATF3

Q: And the “ATF4 induction at the mRNA level” value [8]?
A: not ATF4

Q: What about the “transactivation of ATF3 (GRO-seq)” value [9] of the same compound?
A: rapid transactivation of ATF3

Q: And the “transactivation of ATF4 (GRO-seq)” value [9]?
A: not ATF4

Q: What about the polysome/monosome ratio [10] of the same compound?
A: decreases in the polysome/monosome ratio

Q: What about the “effects on cell viability” value [1] of the same compound?
A: limited effects on cell viability

Q: `O=C(/C=C/c1ccccc1)NC(NC(=S)Nc1ccc(Cl)cc1)C(Cl)(Cl)Cl` (stereo not shown) [sal003] was tested. Which “synergy with small molecule inhibitors of MDM2 to elicit p53-dependent cell death” value [11] did it give?
A: synergize with small molecule inhibitors of MDM2 to elicit p53-dependent cell death

Q: `COc1ncc(-c2nc3c(n2C(C)C)[C@H](c2ccc(Cl)cc2)N(c2cc(Cl)cn(C)c2=O)C3=O)c(OC)n1` [siremadlin/HDM201, siremadlin] was tested. Which “effects on cell viability” value [1] did it give?
A: limited effects on cell viability
